pIC50: −log10 of the molar value. Read-outs that look alike come from different tables or passages of the source.
Columns and labels:
poly A poly T = assay: DNA thermal melting (increase in Tm of poly A poly T); type: binding; conditions: MES buffer pH 6.0, 0.1 M NaCl, ratio of 0.3 moles of compound to nucleic acid bases
Protocol: (§1) Thermal melting curves for DNA and its complexes with compounds from Examples 4, 6, and 7-9 are determined as previously described in F.A. Tanious, et al., J.Biomol. Structure & Dynamics 11:1063 (1994) and W.D. Wilson, et al., Biochemistry 32:4098 (1993), by following the adsorption change at 260 nm as a function of temperature. Tm values were determined from first derivative plots. Compounds are compared by the increase in Tm (ΔTm=Tm of complex - Tm of the free nucleic acid) they produce in MES buffer (0.01M 2-(N-morpholino) ethanesulfonic acid, 0.001 M EDTA, 0.1 M NaCl adjusted to pH 6.0) at saturating amounts of compound (a ratio of 0.3 moles of compound to nucleic acid bases) unless otherwise indicated.

[1] = target: topoisomerase II isolated from Giardia lamblia; assay: Topoisomerase II inhibition (Giardia lamblia enzyme); type: biochemical; conditions: 50% inhibition of topoisomerase II isolated from Giardia lamblia; read-out: IC50 Topoisomerase Activity II G.l.
[2] = target: T1, topoisomerase II isolated from Drosophila melanogaster (Drosophila melanogaster, UniProt P15348); assay: Topoisomerase II inhibition (Drosophila melanogaster enzyme); type: biochemical
T1 construct: topoisomerase II isolated from Drosophila melanogaster; from tissue
T1 sequence (P15348 1-1447): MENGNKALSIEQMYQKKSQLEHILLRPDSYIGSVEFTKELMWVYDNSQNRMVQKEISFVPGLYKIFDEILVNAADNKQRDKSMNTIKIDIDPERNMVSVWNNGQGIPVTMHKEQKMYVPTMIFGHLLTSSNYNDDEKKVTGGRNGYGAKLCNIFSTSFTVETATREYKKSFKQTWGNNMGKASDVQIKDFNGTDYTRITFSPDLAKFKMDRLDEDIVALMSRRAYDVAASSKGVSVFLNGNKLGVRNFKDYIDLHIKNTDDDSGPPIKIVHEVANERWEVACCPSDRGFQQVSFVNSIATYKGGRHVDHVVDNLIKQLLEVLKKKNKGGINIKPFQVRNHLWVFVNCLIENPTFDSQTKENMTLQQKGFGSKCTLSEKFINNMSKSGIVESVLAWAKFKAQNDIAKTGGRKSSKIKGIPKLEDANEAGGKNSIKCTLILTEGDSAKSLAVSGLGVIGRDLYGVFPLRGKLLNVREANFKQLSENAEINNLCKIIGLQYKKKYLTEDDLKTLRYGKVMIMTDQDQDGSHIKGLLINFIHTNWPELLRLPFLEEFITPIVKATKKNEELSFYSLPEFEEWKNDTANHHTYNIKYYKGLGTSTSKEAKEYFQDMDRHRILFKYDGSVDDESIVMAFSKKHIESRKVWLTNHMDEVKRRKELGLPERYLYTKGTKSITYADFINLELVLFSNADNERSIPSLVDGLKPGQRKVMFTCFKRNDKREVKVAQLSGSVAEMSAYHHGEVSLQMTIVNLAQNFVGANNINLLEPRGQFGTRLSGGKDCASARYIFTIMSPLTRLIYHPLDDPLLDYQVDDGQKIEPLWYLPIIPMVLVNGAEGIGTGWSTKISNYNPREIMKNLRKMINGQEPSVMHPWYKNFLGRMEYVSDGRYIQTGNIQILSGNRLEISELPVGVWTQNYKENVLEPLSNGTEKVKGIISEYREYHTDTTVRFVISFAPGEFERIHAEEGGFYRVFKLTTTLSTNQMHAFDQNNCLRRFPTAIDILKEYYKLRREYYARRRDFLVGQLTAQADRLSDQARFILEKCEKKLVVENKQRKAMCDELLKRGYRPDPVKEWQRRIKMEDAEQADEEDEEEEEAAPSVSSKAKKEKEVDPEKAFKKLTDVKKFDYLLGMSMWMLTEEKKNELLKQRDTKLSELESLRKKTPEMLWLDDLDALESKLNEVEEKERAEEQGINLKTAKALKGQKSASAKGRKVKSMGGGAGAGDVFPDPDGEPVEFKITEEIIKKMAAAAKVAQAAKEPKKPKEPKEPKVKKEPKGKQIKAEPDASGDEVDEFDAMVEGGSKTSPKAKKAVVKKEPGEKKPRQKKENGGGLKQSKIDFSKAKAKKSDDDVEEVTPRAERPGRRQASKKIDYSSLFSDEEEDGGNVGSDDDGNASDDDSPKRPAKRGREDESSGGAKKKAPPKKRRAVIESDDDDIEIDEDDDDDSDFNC

Giardia lamblia = assay: Inhibition of growth of Giardia lamblia in in vitro culture; type: cell-based
Pneumocystis carinii = assay: In vivo activity against Pneumocystis carinii (lung cyst counts and toxicity); conditions: for Toxicity: toxicity scale, larger value = more severe, values greater than 2 indicate deaths of some animals
Cryptosporidium parvum = assay: Activity against Cryptosporidium parvum in suckling mice (oocyst counts); type: in vivo; conditions: suckling ICR outbred Swiss mice; for Oocysts: mean oocyst count, control 36.71; for % Reduction: reduction of mean oocyst count versus control
[3] = tested on: oligomer d(GCGCAATTGCGC)2; assay: DNA thermal melting (increase in Tm of oligomer); type: binding; conditions: increase in thermal melting of the oligomer d(GCGCAATTGCGC)2; MES buffer pH 6.0
Protocol: as §1

[4] = target: topoisomerase I isolated from Pneumocystis carinii; assay: Topoisomerase I inhibition (Pneumocystis carinii enzyme); type: biochemical; conditions: 50% inhibition of topoisomerase I isolated from Pneumocystis carinii
[5] = Giardia duodenalis; read-out: IC50 Giardia lamblia
[6] = Pneumocystis carinii, iv, read-out: cyst/g lung (% of control)

Structure (SMILES) | ΔTm DNA (poly A poly T) | pIC50 [1] | pIC50 [2] | pIC50 (Giardia lamblia; [5]) | Oocysts (Cryptosporidium parvum) | % Reduction (Cryptosporidium parvum) | ΔTm Oligomer [3] | pIC50 [4] | also measured
CC(C)NC(=N)c1ccc(-c2ccc(-c3ccc(C(=N)NC(C)C)cc3)o2)cc1 [Compound 13, 2,5-bis[4-(N-isopropylamidino)phenyl]furan] | 23.1 °C | 6.00 to 6.30 | 4.52 to 4.82 | 6.85 | 2.13 | 94.2% | – | – | Toxicity (Pneumocystis carinii; dosage 10.8 µM/kg/day intravenous): 0
c1cc(-c2ccc(-c3ccc(C4=NCCCN4)cc3)o2)ccc1C1=NCCCN1 [Compound 3, 2,5-di-p[2(3,4,5,6-tetrahydropyrimidyl)phenyl]furan] | > 28 °C | 6.00 to 6.30 | 5.60 | 7.22 | – | – | 13.5 °C | < 4.00 | response vs control in vivo at 10.9 µM (Pneumocystis carinii; [6]): 0.4%; Toxicity (Pneumocystis carinii; dosage 10.9 µM/kg/day intravenous): +2
N=C(N)c1ccc(-c2ccc(-c3ccc(C(=N)N)cc3)o2)cc1 [Compound 1, 2,5-bis(4-amidinophenyl)furan] | 25 °C | 6.00 to 6.30 | 5.70 | – | 6.6 | 66% | 11.7 °C | 4.00 | pIC50 (Giardia lamblia; Giardia duodenalis, read-out: IC50 Giardia lamblia): 6.70; response vs control in vivo at 0.027 µM (Pneumocystis carinii; [6]): 55.9%; response vs control in vivo at 0.27 µM (Pneumocystis carinii; [6]): 4.8%; response vs control in vivo at 2.7 µM (Pneumocystis carinii; [6]): 8.3%; response vs control in vivo at 13.3 µM (Pneumocystis carinii; [6]): 2.1%; response vs control in vivo at 66.3 µM (Pneumocystis carinii; Pneumocystis carinii, po, read-out: cyst/g lung (% of control)): 28.4%; Toxicity (Pneumocystis carinii; dosage 0.027 µM/kg/day intravenous): 0; Toxicity (Pneumocystis carinii; dosage 0.27 µM/kg/day intravenous): 0; Toxicity (Pneumocystis carinii; dosage 2.7 µM/kg/day intravenous): 0; Toxicity (Pneumocystis carinii; dosage 13.3 µM/kg/day intravenous): 0; Toxicity (Pneumocystis carinii; dosage 66.3 µM/kg/day, oral dosage by gavage): 0
